Entries after “also recorded” stand apart in the source; their conditions may differ. Like-named read-outs stand apart in the source and are kept apart here.
How the values were obtained:
[1] = Urine pharmacokinetics of IM156 in patients; format: in vivo, human; settings: for % Dose Recovered / CLr / Total Amount Excreted (Ae): urine
tumor cells = test system: tumor cells; design: method as in Immunomet – Data on File; settings: at equal concentrations, ref Immunomet – Data on File, cited from earlier work
OXPHOS = OXPHOS inhibition in whole blood ex vivo; format: cell-based; settings: at ~ 6 μM IM156
Description: The maximum plasma exposure achieved in this study was ~ 6 μM in patients who received IM156 at daily doses of 800 mg. […] As such, measurements of target inhibition were not informative using PBMCs-based assays.

A549 = test system: A549; design: method as in ImmunoMet, 2018; settings: in A549; ref ImmunoMet, 2018; read-out: OXPHOS inhibition IC50; cited from earlier work
advanced solid tumors = assay: Preliminary efficacy (RECIST 1.1 / RANO response, PFS); format: in vivo, human
Source text: A preliminary evaluation of efficacy was based on serial CT or magnetic resonance imaging (MRI). Response criteria were as defined by RECIST 1.1 or RANO. The following endpoints were to be assessed: overall response rate (ORR: complete response [CR] plus partial response [PR]), disease control rate (DCR: CR + PR + stable disease [SD]), DoR, and PFS.
The safety population was defined as all patients who received at least one dose of IM156. The PK population was not defined in the protocol but included all patients with sufficient PK data to perform adequate PK modeling. The efficacy population included all patients who underwent at least one tumor imaging assessment while receiving IM156. Safety was assessed using descriptive statistics (e.g., DLTs, AEs, laboratory tests, physical examination, 12-lead ECG). The incidence and number of events were reported for the DLTs observed in Cycle 1 per dose group. […] Two-sided 95% Confidence Intervals (CIs) were also provided. Adverse events and TRAEs were standardized with the System Organ Class and the Preferred Term using the Medical Dictionary for Regulatory Activities v23.0. In addition, TEAEs, serious adverse events (SAEs), TEAE severity, and TEAEs leading to withdrawal were presented by dose group. Efficacy data were to be presented by Waterfall and Swim Lane plots. Time to event endpoints (e.g., DoR, PFS) were determined using Kaplan–Meier estimations with the median value for each endpoint summarized.

Glioblastoma cells = test system: Glioblastoma cells; design: method as in ImmunoMet, 2018; settings: 15 µM IM156, 500 µM temozolomide, ref ImmunoMet, 2018; cited from earlier work
rodent bone marrow = settings: ref ImmunoMet, 2018; cited from earlier work
beagle dogs = settings: ref ImmunoMet, 2018, cited from earlier work
[2] = beagle dogs, ref ImmunoMet, 2018, cited from earlier work
[3] = test system: GC lines including MKN-74; design: method as in ImmunoMet, 2018; settings: Eleven GC lines including MKN-74; ref ImmunoMet, 2018; cited from earlier work
[4] = test system: miR-17~92 overexpression Eµ-MYC lymphoma; design: method as in ImmunoMet, 2018; settings: nude mice, IM156 in drinking water 0.8 mg/mL, vs control line or regular drinking water; ref ImmunoMet, 2018; cited from earlier work
[5] = Day 27, cohort 1, 100 mg QOD, n<3
[6] = Day 27, cohort 7, 1200 mg QD, n<3

NC(=Nc1ccc(OC(F)(F)F)cc1)N=C(N)N1CCCC1 [IM156]
IM156 excreted in the urine ([1]; Day 1, 200—1200 mg QOD, approximately): 8–10%
% Dose Recovered ([1]; Day 1, cohort 1, 100 mg QOD): 1.79 ± 0.620%
CLr ([1]; Day 1, cohort 1, 100 mg QOD): 6.16 ± 5.25 L/h
Total Amount Excreted (Ae) ([1]; Day 1, cohort 1, 100 mg QOD): 1790 ± 620 µg
% Dose Recovered ([1]; Day 1, cohort 2, 200 mg QOD): 10.0 ± 1.57%
CLr ([1]; Day 1, cohort 2, 200 mg QOD): 6.69 ± 0.709 L/h
Total Amount Excreted (Ae) ([1]; Day 1, cohort 2, 200 mg QOD): 20000 ± 3150 µg
% Dose Recovered ([1]; Day 1, cohort 3, 400 mg QOD): 7.90 ± 2.90%
CLr ([1]; Day 1, cohort 3, 400 mg QOD): 9.41 ± 6.80 L/h
Total Amount Excreted (Ae) ([1]; Day 1, cohort 3, 400 mg QOD): 31600 ± 11600 µg
% Dose Recovered ([1]; Day 1, cohort 4, 800 mg QOD): 7.86 ± 4.25%
CLr ([1]; Day 1, cohort 4, 800 mg QOD): 10.4 ± 6.93 L/h
Total Amount Excreted (Ae) ([1]; Day 1, cohort 4, 800 mg QOD): 62900 ± 34000 µg
% Dose Recovered ([1]; Day 1, cohort 5, 1200 mg QOD): 9.11 ± 12.9%
CLr ([1]; Day 1, cohort 5, 1200 mg QOD): 7.89 ± 9.01 L/h
Total Amount Excreted (Ae) ([1]; Day 1, cohort 5, 1200 mg QOD): 109000 ± 155000 µg
% Dose Recovered ([1]; Day 1, cohort 6, 800 mg QD): 7.96 ± 5.94%
CLr ([1]; Day 1, cohort 6, 800 mg QD): 7.92 ± 2.62 L/h
Total Amount Excreted (Ae) ([1]; Day 1, cohort 6, 800 mg QD): 63700 ± 47500 µg
% Dose Recovered ([1]; Day 1, cohort 7, 1200 mg QD): 8.79 ± 2.05%
CLr ([1]; Day 1, cohort 7, 1200 mg QD): 7.60 ± 4.02 L/h
Total Amount Excreted (Ae) ([1]; Day 1, cohort 7, 1200 mg QD): 105000 ± 24600 µg
% Dose Recovered [1, 5]: 4.32%
CLr [1, 5]: 4.46 L/h
Total Amount Excreted (Ae) [1, 5]: 4320 µg
% Dose Recovered ([1]; Day 27, cohort 2, 200 mg QOD): 13.9 ± 2.34%
CLr ([1]; Day 27, cohort 2, 200 mg QOD): 6.83 ± 1.58 L/h
Total Amount Excreted (Ae) ([1]; Day 27, cohort 2, 200 mg QOD): 27700 ± 4680 µg
% Dose Recovered ([1]; Day 27, cohort 3, 400 mg QOD): 16.2 ± 11.4%
CLr ([1]; Day 27, cohort 3, 400 mg QOD): 8.68 ± 1.52 L/h
Total Amount Excreted (Ae) ([1]; Day 27, cohort 3, 400 mg QOD): 64700 ± 45600 µg
% Dose Recovered ([1]; Day 27, cohort 4, 800 mg QOD): 16.2 ± 9.80%
CLr ([1]; Day 27, cohort 4, 800 mg QOD): 11.2 ± 6.94 L/h
Total Amount Excreted (Ae) ([1]; Day 27, cohort 4, 800 mg QOD): 129000 ± 78400 µg
% Dose Recovered ([1]; Day 27, cohort 5, 1200 mg QOD): 18.7 ± 10.6%
CLr ([1]; Day 27, cohort 5, 1200 mg QOD): 10.9 ± 7.79 L/h
Total Amount Excreted (Ae) ([1]; Day 27, cohort 5, 1200 mg QOD): 225000 ± 128000 µg
% Dose Recovered ([1]; Day 27, cohort 6, 800 mg QD): 34.8 ± 6.56%
CLr ([1]; Day 27, cohort 6, 800 mg QD): 8.72 ± 3.01 L/h
Total Amount Excreted (Ae) ([1]; Day 27, cohort 6, 800 mg QD): 279000 ± 52500 µg
% Dose Recovered [1, 6]: 21.0%
CLr [1, 6]: 7.16 L/h
Total Amount Excreted (Ae) [1, 6]: 252000 µg
% Dose Recovered ([1]; Fed 1, cohort 7, 1200 mg): 5.42 ± 3.51%
CLr ([1]; Fed 1, cohort 7, 1200 mg): 5.16 ± 3.51 L/h
Total Amount Excreted (Ae) ([1]; Fed 1, cohort 7, 1200 mg): 65100 ± 42100 µg
reduction of cellular ATP production versus phenformin (tumor cells; without increase in ECAR): more potent
decrease of oxygen consumption rate (OCR) of tumor cells compared to phenformin and metformin (tumor cells): more potent
inhibition of OXPHOS in whole blood ex vivo (OXPHOS): very little inhibition
IC50 (A549): 9 µM
duration of prolonged SD / time on IM156 (advanced solid tumors; 1 patient with gastric adenocarcinoma): 169 days
duration of prolonged SD / time on IM156 (advanced solid tumors; 1 patient with gastric neuroendocrine carcinoma): 444 days
objective responses (CRs or PRs) (advanced solid tumors; 16 of 22 patients with response data): No objective responses; also recorded: No clinical responses
median PFS (advanced solid tumors; Kaplan–Meier): 54 days
median PFS, 95% CI (advanced solid tumors; Kaplan–Meier): 47 to 71 days
disease control rate (DCR) (advanced solid tumors; N = 22): 32%
patients with confirmed SD (advanced solid tumors; N = 22): 2 patients
patients with confirmed SD, percent (advanced solid tumors; N = 22): 9%
patients with stable disease (SD) as best response (advanced solid tumors; N = 22): 7 patients
patients with stable disease (SD) as best response, percent (advanced solid tumors; N = 22): 32%
neurosphere size (Glioblastoma cells): decreased
genotoxicity in in vivo micronucleus test (rodent bone marrow): not genotoxic
tolerability (beagle dogs; beagle dogs, 20, 40, or 80 mg/kg/dose QOD oral gavage, 27 days): tolerated and did not result in morbidity/mortality
highest non-severely toxic dose (HNSTD) (beagle dogs; beagle dogs, oral QOD over 27 days (14 doses), highest dose tested): ≥ 80 mg/kg
accumulation over 27 days ([2]; 20 mg/kg/dose QOD): no apparent accumulation
accumulation over 27 days ([2]; 40 and 80 mg/kg/dose QOD): accumulation
sensitivity of GC lines to single agent [3]: significant sensitivity
extension of overall animal survival [4]: approximately 50%

— publication PMC9395488, “First-in-human study of IM156, a novel potent biguanide oxidative phosphorylation (OXPHOS) inhibitor, in patients with advanced solid tumors” (Investigational New Drugs, 2022)
